In patent publication US20100029622A1, “MICROEMULSIONS” (NEUROSCIENZE PHARMANESS S.C.A.R.L., priority 2008, published 2010):

Key:
[1] = molecular target: T1, opioidergic receptors μ (Mus musculus, UniProt P42866); assay: Radioreceptorial binding, receptors μ ([3H]-DAMGO displacement, brain membranes); parameters: species or system mice; conditions: 1 nM [3H]-DAMGO, 25° C.
T1 construct: from tissue; host or cells: CD1 mouse total brain (excluding the cerebellum) membranes

[2] = molecular target: T2, opioidergic receptors k (Mus musculus, UniProt P33534); assay: Radioreceptorial binding, receptors k (3H-U 69.593, brain membranes); parameters: species or system mice; conditions: 3H-U 69.593, 25° C.
T2 construct: the complete brain (excluding the cerebellum) was quickly dissected and kept in ice; from tissue; host or cells: CD1 mouse complete brain (excluding the cerebellum) homogenate/membranes
T2 sequence (P33534 whole entry): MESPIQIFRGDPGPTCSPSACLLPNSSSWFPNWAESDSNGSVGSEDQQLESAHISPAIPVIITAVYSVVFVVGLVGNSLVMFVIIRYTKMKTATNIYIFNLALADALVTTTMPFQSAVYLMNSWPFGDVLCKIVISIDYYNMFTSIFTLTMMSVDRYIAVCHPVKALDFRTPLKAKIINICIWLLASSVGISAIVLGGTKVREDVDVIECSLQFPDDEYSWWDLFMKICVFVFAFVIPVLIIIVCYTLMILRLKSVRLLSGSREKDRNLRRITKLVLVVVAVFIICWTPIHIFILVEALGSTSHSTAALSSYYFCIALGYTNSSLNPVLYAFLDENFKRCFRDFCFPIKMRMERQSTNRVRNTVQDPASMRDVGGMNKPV
From the text: The affinity of the compounds synthesized in the preceding examples towards the opioidergic receptors μ, δ, k has been evaluated in vitro by radioreceptorial binding studies by using the method reported hereinunder.
The experimentation has been carried out according to the guide lines of the European Community for the animal experimentation (EEC n. 86/609), by using laboratory animals (male mices CD1 Charles River Italy, Calco, LC, Italy) lodged twenty in a cage, under standard stabulation conditions (temperature 22±2° C., relative humidity 60%, artificial light with a light/dark cycle of 12 hours). The food and water were at disposal ad libitum.
Receptors k: CD1 male mice weighing 20-25 g were used. The animals were sacrificed by cervical dislocation and the complete brain (excluding the cerebellum) was quickly dissected and kept in ice. The tissue was homogeneized in 40 volumes (w/v) of Tris-HCl buffer (50 mM, pH 7.4) by an Ultra-Turrax, then centrifuged for 20 minutes at 48,000×g in a centrifuge kept at 4° C. The resulting […] was suspended again in the same buffer and incubated at 37° C. for 30 minutes in a bath kept under oscillation. At the end of the incubation the suspension was centrifuged 48,000×g for 15 minutes and the pellets suspended again in 10 volumes of the Tris-HCl buffer. The binding experiment was carried out in a volume of 1 ml at the temperature of 25° C. with about 800-1000 μg of proteins for sample. The incubation was carried out for 60 minutes in the,presence of different concentrations of the ligand ^3H-U 69.593 (41.7 Ci/mmole). The non specific binding was determined in the presence of U69593 (10 μM). The incubation was stopped by quick filtering by means of a filtration instrument (Brandell®, Gaithersburg, Md., USA) by using GF/C filters (Whatman®).
The radioactivity was determined by a scintillator in liquid phase (Tricarb® 2100, Packard, Meridien, Ill., USA), by using three ml of scintillating fluid (Ultima Cold MV, Packard, Meridien, Ill., USA).
The protein determination was carried out by the Bradford method (1976) by using the protocol and the reactants supplied by Bio-Rad (Milano, Italy).
The affinity of the compounds towards the receptors μ, δ, κ has been expressed in Ki terms.

[3] = molecular target: T3, opioidergic receptors δ (Mus musculus, UniProt P32300); assay: Radioreceptorial binding, receptors δ ([3H]-DPDPE displacement, brain membranes); parameters: species or system mice; conditions: 1 nM [3H]-DPDPE, 25° C.
T3 construct: from tissue; host or cells: CD1 mouse total brain (excluding the cerebellum) membranes
T3 sequence (P32300 whole entry): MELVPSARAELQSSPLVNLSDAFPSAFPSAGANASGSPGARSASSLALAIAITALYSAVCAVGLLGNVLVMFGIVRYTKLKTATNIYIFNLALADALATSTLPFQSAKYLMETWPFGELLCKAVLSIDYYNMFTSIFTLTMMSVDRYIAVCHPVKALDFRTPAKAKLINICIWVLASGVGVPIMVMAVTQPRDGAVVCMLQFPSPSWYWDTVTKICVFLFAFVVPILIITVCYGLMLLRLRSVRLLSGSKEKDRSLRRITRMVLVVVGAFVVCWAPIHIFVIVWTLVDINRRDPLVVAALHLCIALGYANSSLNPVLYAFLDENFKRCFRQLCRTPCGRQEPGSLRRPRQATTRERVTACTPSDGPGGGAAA

T1 sequence (P42866 whole entry): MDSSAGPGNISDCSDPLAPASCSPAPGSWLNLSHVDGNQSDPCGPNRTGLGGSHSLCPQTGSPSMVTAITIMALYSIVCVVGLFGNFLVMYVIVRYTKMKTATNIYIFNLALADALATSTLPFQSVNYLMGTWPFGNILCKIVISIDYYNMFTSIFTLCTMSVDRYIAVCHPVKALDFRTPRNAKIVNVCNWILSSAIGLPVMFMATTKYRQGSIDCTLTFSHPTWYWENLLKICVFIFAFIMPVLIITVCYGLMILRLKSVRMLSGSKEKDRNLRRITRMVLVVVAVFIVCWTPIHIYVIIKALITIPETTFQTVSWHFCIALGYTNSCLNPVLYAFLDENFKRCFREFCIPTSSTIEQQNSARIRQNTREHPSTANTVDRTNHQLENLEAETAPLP

Structure (SMILES) | Ki [1] [nM] | Ki [2] [nM] | Ki [3] [nM] | melting point [°C]
CCC(=O)N1C2CCC1CN(C/C=C(\C)c1ccc(Cl)c(Cl)c1)CC2 (stereo not drawn) [I-Bb] | 4.1 ± 0.35 | 393 ± 23 | 850 ± 58 | 186 to 188
CCC(=O)N1C2CCCC1CN(CC=C(c1ccccc1)c1ccccc1)CC2 (stereo not drawn) [I-Dc] | 23.3 ± 1.6 | 1930 ± 233 | 1690 ± 312 | 169 to 170
CCC(=O)N1CCC2CCCC(C1)N2CC=C(c1ccccc1)c1ccccc1 (stereo not drawn) [I-Cc] | 3.16 ± 0.6 | 40 ± 0.1 | 187 ± 29.7 | 137 to 139
CCC(=O)N1CCC2CCC(C1)N2C/C=C(\C)c1ccccc1 (stereo not drawn) [I-Aa] | 5.7 ± 1 | 55 ± 25 | 425 ± 25 | 230 to 232
CCC(=O)N1CCC2CCCC(C1)N2C/C=C(\C)c1ccccc1 (stereo not drawn) [I-Ca] | 17 ± 1.3 | 410 ± 10 | 1670 ± 166 | 106 to 108
CCC(=O)N1CCC2CCC(C1)N2CC=C(c1ccccc1)c1ccccc1 (stereo not drawn) [I-Ad] | 10.7 ± 0.3 | 103 ± 7 | 142 ± 25 | 176 to 177
CCC(=O)N1C2CCCC1CN(C/C=C(\C)c1ccccc1)CC2 (stereo not drawn) [I-Da] | 40 ± 2.8 | 1470 ± 317 | 3870 ± 125 | 144 to 146
CCC(=O)N1C2CCCC1CN(C/C=C(\C)c1ccc(Cl)c(Cl)c1)CC2 (stereo not drawn) [I-Db] | 17.5 ± 1.4 | 1170 ± 120 | 3250 ± 166 | 175 to 176
CCC(=O)N1CCC2CCC(C1)N2C/C=C(\C)c1ccc(Cl)c(Cl)c1 (stereo not drawn) [I-Ab] | 7 ± 1.5 | 100 ± 5 | 867 ± 44 | 188 to 189
CCC(=O)N1C2CCC1CN(CC=C(c1ccccc1)c1ccccc1)CC2 (stereo not drawn) [I-Bd] | 20.7 ± 2.33 | 1130 ± 186 | 333 ± 5 | 184 to 186
CCC(=O)N1C2CCC1CN(C/C=C(\C)c1ccccc1)CC2 (stereo not drawn) [I-Ba] | 8.3 ± 1.2 | 900 ± 100 | 933 ± 33 | 228 to 230
CCC(=O)N1CCC2CCCC(C1)N2C/C=C(\C)c1ccc(Cl)c(Cl)c1 (stereo not drawn) [I-Cb] | 4.25 ± 0.3 | 425 ± 38 | 1120 ± 216 | 184 to 185
